# Measured values: PubChem BioAssay (NCI)
#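 A five-concentration, 48-hour dose response in 96-well plates underlies each endpoint, interpolated linearly between surrounding concentrations. TGI denotes the concentration required for complete inhibition of growth.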
# Legend:
# Test in all cases: growth of human tumour cells (NCI), 48 h
# COLO 205 colon = test system: COLO 205 colon
# A549 NSCLC = test system: A549 NSCLC
# BT-549 breast = test system: BT-549 breast
# MALME-3M melanoma = test system: MALME-3M melanoma
# NCI-H226 lung = test system: NCI-H226 lung
# 786-0 renal = test system: 786-0 renal
# HT29 colon = test system: HT29 colon
# CCRF-CEM leukemia = test system: CCRF-CEM leukemia
# MDA-MB-435 = test system: MDA-MB-435
# OVCAR-4 ovarian = test system: OVCAR-4 ovarian
# SR leukemia = test system: SR leukemia
# OVCAR-3 ovarian = test system: OVCAR-3 ovarian
# HS 578T breast = test system: HS 578T breast
# HCT-116 colon = test system: HCT-116 colon
# U251 CNS = test system: U251 CNS
# SNB-19 CNS = test system: SNB-19 CNS
# KM12 colon = test system: KM12 colon
structure (smiles),measurement,setting,value
Cc1ccc(S(=O)(=O)N2C3C=CC(C3)[C@@H]2C(Cl)(Cl)Cl)cc1 (stereo partly specified),TGI,COLO 205 colon,38.2 µM
same,TGI,A549 NSCLC,> 100 µM
same,TGI,BT-549 breast,32.4 µM
same,TGI,MALME-3M melanoma,56.1 µM
same,TGI,NCI-H226 lung,60.9 µM
same,TGI,786-0 renal,49.5 µM
same,TGI,HT29 colon,31.8 µM
same,TGI,CCRF-CEM leukemia,71.2 µM
same,TGI,MDA-MB-435,> 88.4 µM
same,TGI,OVCAR-4 ovarian,> 77.1 µM
same,TGI,SR leukemia,43.2 µM
same,TGI,OVCAR-3 ovarian,25.3 µM
same,TGI,HS 578T breast,41.3 µM
same,TGI,HCT-116 colon,24.7 µM
same,TGI,U251 CNS,40.1 µM
same,TGI,SNB-19 CNS,> 87.6 µM
same,TGI,KM12 colon,85.5 µM
O=C(C(=O)n1ccc2ccccc21)n1ccc2ccccc21,TGI,COLO 205 colon,> 100 µM
same,TGI,A549 NSCLC,> 100 µM
same,TGI,BT-549 breast,> 100 µM
same,TGI,MALME-3M melanoma,> 100 µM
same,TGI,NCI-H226 lung,> 100 µM
same,TGI,786-0 renal,> 100 µM
same,TGI,HT29 colon,> 100 µM
same,TGI,CCRF-CEM leukemia,> 100 µM
same,TGI,MDA-MB-435,> 100 µM
same,TGI,OVCAR-4 ovarian,78 µM
same,TGI,SR leukemia,> 100 µM
same,TGI,OVCAR-3 ovarian,> 100 µM
same,TGI,HS 578T breast,> 100 µM
same,TGI,HCT-116 colon,> 100 µM
same,TGI,U251 CNS,> 100 µM
same,TGI,SNB-19 CNS,> 100 µM
CC1=C/C(=N\NC(N)=S)C(C(O)(C(F)(F)F)C(F)(F)F)C(C)(C)C1 (stereo unspecified),TGI,COLO 205 colon,> 10 µM
same,TGI,A549 NSCLC,> 10 µM
same,TGI,BT-549 breast,> 10 µM
same,TGI,MALME-3M melanoma,> 10 µM
same,TGI,NCI-H226 lung,> 10 µM
same,TGI,786-0 renal,> 10 µM
same,TGI,HT29 colon,> 10 µM
same,TGI,CCRF-CEM leukemia,> 10 µM
same,TGI,MDA-MB-435,> 10 µM
same,TGI,OVCAR-4 ovarian,> 10 µM
same,TGI,SR leukemia,> 10 µM
same,TGI,OVCAR-3 ovarian,> 10 µM
same,TGI,HS 578T breast,> 10 µM
same,TGI,HCT-116 colon,> 10 µM
same,TGI,U251 CNS,> 10 µM
same,TGI,SNB-19 CNS,> 10 µM
same,TGI,KM12 colon,> 10 µM
C(=C/CCCN1O[C@@H](CCCCCCCCc2cccnc2)[C@H]2CCC[C@H]21)/CCCCCCCCCc1cccnc1,TGI,COLO 205 colon,30.9 µM
same,TGI,A549 NSCLC,47.2 µM
same,TGI,BT-549 breast,95.7 µM
same,TGI,MALME-3M melanoma,33.9 µM
same,TGI,NCI-H226 lung,36.8 µM
same,TGI,786-0 renal,37 µM
same,TGI,HT29 colon,61.1 µM
same,TGI,CCRF-CEM leukemia,41.3 µM
same,TGI,MDA-MB-435,38 µM
same,TGI,OVCAR-4 ovarian,> 100 µM
same,TGI,SR leukemia,51.5 µM
same,TGI,OVCAR-3 ovarian,36.1 µM
same,TGI,HS 578T breast,> 100 µM
same,TGI,HCT-116 colon,40.4 µM
same,TGI,U251 CNS,34.5 µM
same,TGI,SNB-19 CNS,85 µM
same,TGI,KM12 colon,58.7 µM
CCOC(=O)c1cn2c(n1)sc1cc(F)ccc12,TGI,COLO 205 colon,> 100 µM
same,TGI,A549 NSCLC,> 100 µM
same,TGI,BT-549 breast,> 100 µM
same,TGI,MALME-3M melanoma,> 100 µM
same,TGI,NCI-H226 lung,> 100 µM
same,TGI,786-0 renal,> 100 µM
same,TGI,HT29 colon,> 100 µM
same,TGI,CCRF-CEM leukemia,> 100 µM
same,TGI,MDA-MB-435,> 100 µM
same,TGI,OVCAR-4 ovarian,> 100 µM
same,TGI,SR leukemia,> 100 µM
same,TGI,OVCAR-3 ovarian,> 100 µM
same,TGI,HS 578T breast,> 100 µM
same,TGI,HCT-116 colon,> 100 µM
same,TGI,U251 CNS,> 100 µM
same,TGI,SNB-19 CNS,> 100 µM
same,TGI,KM12 colon,> 100 µM
COc1ccc(C2c3cc4c(cc3OC3(OC)COC(=O)C23)OCO4)c(OC)c1 (stereo unspecified),TGI,COLO 205 colon,51.7 µM
same,TGI,A549 NSCLC,> 100 µM
same,TGI,BT-549 breast,> 100 µM
same,TGI,MALME-3M melanoma,> 100 µM
same,TGI,NCI-H226 lung,> 100 µM
same,TGI,786-0 renal,> 61.3 µM
same,TGI,HT29 colon,15.1 µM
same,TGI,CCRF-CEM leukemia,> 46.8 µM
same,TGI,MDA-MB-435,5.47 µM
same,TGI,OVCAR-4 ovarian,> 100 µM
same,TGI,SR leukemia,> 100 µM
same,TGI,OVCAR-3 ovarian,> 63 µM
same,TGI,HS 578T breast,27.1 µM
same,TGI,HCT-116 colon,> 90.7 µM
same,TGI,U251 CNS,> 100 µM
same,TGI,SNB-19 CNS,> 100 µM
same,TGI,KM12 colon,40 µM
CCOC(=O)CCC(NC(=O)C(N)Cc1ccc(N(CCCl)CCCl)cc1)C(=O)OCC (stereo unspecified),TGI,COLO 205 colon,1.85 µM
same,TGI,A549 NSCLC,> 33.4 µM
same,TGI,BT-549 breast,12.4 µM
same,TGI,MALME-3M melanoma,0.747 µM
same,TGI,NCI-H226 lung,20.7 µM
same,TGI,786-0 renal,2.08 µM
same,TGI,HT29 colon,3.47 µM
same,TGI,CCRF-CEM leukemia,4.29 µM
same,TGI,MDA-MB-435,3.75 µM
same,TGI,OVCAR-4 ovarian,1.38 µM
same,TGI,SR leukemia,14 µM
same,TGI,OVCAR-3 ovarian,1.68 µM
same,TGI,HS 578T breast,4.93 µM
same,TGI,HCT-116 colon,3.54 µM
same,TGI,U251 CNS,7.41 µM
same,TGI,SNB-19 CNS,15.5 µM
same,TGI,KM12 colon,3.43 µM
COCOC1/C=C/CCCCC(=O)C(C)C#CC1 (stereo unspecified),TGI,COLO 205 colon,5.4 µM
same,TGI,A549 NSCLC,30.1 µM
same,TGI,BT-549 breast,19.3 µM
same,TGI,MALME-3M melanoma,4.95 µM
same,TGI,NCI-H226 lung,35.3 µM
same,TGI,786-0 renal,5.44 µM
same,TGI,HT29 colon,8.28 µM
same,TGI,CCRF-CEM leukemia,5.81 µM
same,TGI,MDA-MB-435,18.3 µM
same,TGI,OVCAR-4 ovarian,24.4 µM
same,TGI,SR leukemia,8.02 µM
same,TGI,OVCAR-3 ovarian,10.9 µM
same,TGI,HS 578T breast,> 73.7 µM
same,TGI,HCT-116 colon,3.34 µM
same,TGI,U251 CNS,28 µM
same,TGI,SNB-19 CNS,32.6 µM
same,TGI,KM12 colon,25.5 µM
C[N+]12C=CC=C1C(N1CCCC1)c1scc(-c3ccc(Br)cc3)c12 (stereo unspecified),TGI,COLO 205 colon,39.8 µM
same,TGI,A549 NSCLC,> 100 µM
same,TGI,BT-549 breast,17.7 µM
same,TGI,MALME-3M melanoma,25.4 µM
same,TGI,NCI-H226 lung,> 100 µM
same,TGI,786-0 renal,> 100 µM
same,TGI,HT29 colon,> 100 µM
same,TGI,CCRF-CEM leukemia,58.9 µM
same,TGI,MDA-MB-435,76.9 µM
same,TGI,OVCAR-4 ovarian,> 100 µM
same,TGI,SR leukemia,35.5 µM
same,TGI,OVCAR-3 ovarian,39.1 µM
same,TGI,HS 578T breast,9.6 µM
same,TGI,HCT-116 colon,> 100 µM
same,TGI,U251 CNS,24.7 µM
same,TGI,SNB-19 CNS,39.2 µM
same,TGI,KM12 colon,25.9 µM
CSC(=O)c1sc(SC)[n+](-c2ccccc2)c1O,TGI,COLO 205 colon,> 100 µM
same,TGI,A549 NSCLC,> 100 µM
same,TGI,BT-549 breast,29.4 µM
same,TGI,MALME-3M melanoma,56.6 µM
same,TGI,NCI-H226 lung,52.9 µM
same,TGI,786-0 renal,32.7 µM
same,TGI,HT29 colon,46.5 µM
same,TGI,CCRF-CEM leukemia,38.1 µM
same,TGI,MDA-MB-435,35.5 µM
same,TGI,OVCAR-4 ovarian,24.9 µM
same,TGI,SR leukemia,> 100 µM
same,TGI,OVCAR-3 ovarian,26.2 µM
same,TGI,HS 578T breast,> 100 µM
same,TGI,HCT-116 colon,32.6 µM
same,TGI,U251 CNS,30.1 µM
same,TGI,SNB-19 CNS,35.7 µM
CC(N)/C(N)=N/O (stereo unspecified),TGI,COLO 205 colon,> 100 µM
same,TGI,A549 NSCLC,> 100 µM
same,TGI,BT-549 breast,> 100 µM
same,TGI,MALME-3M melanoma,> 100 µM
same,TGI,NCI-H226 lung,> 100 µM
same,TGI,786-0 renal,> 100 µM
same,TGI,HT29 colon,> 100 µM
same,TGI,CCRF-CEM leukemia,> 100 µM
same,TGI,MDA-MB-435,> 100 µM
same,TGI,OVCAR-4 ovarian,> 100 µM
same,TGI,SR leukemia,> 100 µM
same,TGI,OVCAR-3 ovarian,> 100 µM
same,TGI,HS 578T breast,> 100 µM
same,TGI,HCT-116 colon,> 100 µM
same,TGI,U251 CNS,> 100 µM
same,TGI,SNB-19 CNS,> 100 µM
same,TGI,KM12 colon,> 100 µM
CC(C)=C[C@H]1C[C@H](C)[C@H]2CC[C@H](C)c3c2c1c(C)c1ncoc31,TGI,COLO 205 colon,33.6 µM
same,TGI,A549 NSCLC,32.3 µM
same,TGI,BT-549 breast,36.3 µM
same,TGI,MALME-3M melanoma,29.5 µM
same,TGI,NCI-H226 lung,33.2 µM
same,TGI,786-0 renal,36.1 µM
same,TGI,CCRF-CEM leukemia,39.6 µM
same,TGI,MDA-MB-435,38.9 µM
same,TGI,OVCAR-4 ovarian,34.1 µM
same,TGI,SR leukemia,40.9 µM
same,TGI,OVCAR-3 ovarian,28.7 µM
same,TGI,HS 578T breast,45 µM
same,TGI,HCT-116 colon,33.6 µM
same,TGI,U251 CNS,34 µM
same,TGI,SNB-19 CNS,32.3 µM
same,TGI,KM12 colon,34.5 µM
